Patent publication US20220356174A1, “PYRIDIN-2-ONE COMPOUNDS USEFUL AS SMARCA2 ANTAGONISTS” (Epizyme, Inc., priority 2018, published 2022)
Where two headings read alike, the source gives them in different places.

Key:
H358 cells = assay: High-throughput proliferation (HTP) assay for H358 cells (CellTiter-Glo, 7 days); assay type: cell-based; conditions: Homo sapiens, NCI-H358, 168 h, read-out: H358 SMARCA2 IC50
Method: Thawing vials: H358 cells (ATCC #CRL-5807™) were thawed from a cryovial containing approximately 1.6×10^6 cells frozen in 70% RPMI 1640 medium, 20% HI-FBS and 10% DMSO. Cells were thawed by submerging the bottom half of the vial in a 37° C. water bath and gently flicked until almost thawed. The cells were removed and transferred into a 15 mL conical tube containing 9 mL RPMI 1640 medium+10% HI-FBS and then centrifuged 200×g for 4 min before drawing off the media without disturbing the cell pellet to remove the DMSO. The cells were resuspended again in 15 mL of RPMI 1640 fresh complete media+10% HI-FBS and grown up in a T75 flask at 37° C. with 5% CO2 Incubator. Viability was measured to obtain baseline.
Preparing frozen stock vials: Cell density was counted in a stock flask. The culture was transferred to a 50 mL conical tube and spun down to remove medium, and then resuspend at 1-2×10^6 cells/mL in complete medium containing 10% DMSO and transferred to a 1 mL per vial.
Routine subculture: Sub-confluent cultures (70-80%) were split every 4 days, seeding out at 1-2×10^6 cells/75 cm^2.
Day 0: Assay ready plates were prepared by dispensing 50 nL of compound stock or DMSO in the appropriate wells of 384-well white CulturPlates using Echo550. Using the Multiflo, H358 cells at 50 μL/well were plated in RPMI 1640 complete media+10% HI-FBS+1% pen/strep at cell density determined [20,000 cells/mL (1,000 cells/well)] from growth curve. Treated cells were inclubated at 37° C., 5% CO2, relative humidity >90% for 7 days. CellTiter-Glo (CTG) ATP detection reagent was prepared according to manufacturer's specifications. Cell assay plates were removed from incubator and bring to room temperature (RT).
Using the MultiDrop liquid handler, 30 μL of CTG were added per well. Plates were placed on the multidrop dispenser shake for 5 seconds at RT. Plates were incubated for 30 minutes in the dark at RT before measuring luminescence using the Envison2104.
Data analysis: Using the DMSO control wells as the 0% inhibition (high signal) control and the 10 uM Doxorubicin control wells as the 100% inhibition (low signal) control, percent inhibition EC50s (inflection point) and IC50s were calculated for the compound dose responses.

[1] = molecular target: T1, FL-SMARCA2 (full-length human SMARCA2 isoform 1) (Homo sapiens, UniProt P51531); assay: SMARCA2 ATPase activity assay (ADP-Glo, chicken mononucleosome substrate); assay type: biochemical; conditions: ATPase assay, enzyme 5 nM, ATP 250 uM, chicken mononucleosome 10 nM, 30 min preincubation
T1 construct: FLAG tag (YKDDDDK) (C); made in house; host or cells: Sf21 insect cells (baculovirus, pFastBacI)

A549 cells = assay: High-throughput proliferation (HTP) assay for A549 cells (CellTiter-Glo, 7 days); assay type: cell-based; conditions: Homo sapiens, 168 h, read-out: A549 SMARCA2 IC50
Outline: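 Seven-day growth of A549 (62.5 cells/well, F12K with 10% HI-FBS, 37° C.) with compound, read by CellTiter-Glo ATP luminescence. Percent inhibition scaled between DMSO wells and 10 μM Doxorubicin wells, then fitted for EC50 and IC50.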

FL-SMARCA4 = FL-SMARCA4 (Homo sapiens, UniProt P51532); assay: SMARCA4 ATPase activity assay (ADP-Glo, chicken mononucleosome substrate)
[2] = FL-SMARCA4 IC>50, Table 3c.2, ATPase assay, enzyme 5 nM, ATP 250 uM, chicken mononucleosome 10 nM, 30 min preincubation
[3] = Table 3d.1, read-out: FL-SMARCA2 IC>50

T1 sequence (P51531 with tags, fused parts or gaps): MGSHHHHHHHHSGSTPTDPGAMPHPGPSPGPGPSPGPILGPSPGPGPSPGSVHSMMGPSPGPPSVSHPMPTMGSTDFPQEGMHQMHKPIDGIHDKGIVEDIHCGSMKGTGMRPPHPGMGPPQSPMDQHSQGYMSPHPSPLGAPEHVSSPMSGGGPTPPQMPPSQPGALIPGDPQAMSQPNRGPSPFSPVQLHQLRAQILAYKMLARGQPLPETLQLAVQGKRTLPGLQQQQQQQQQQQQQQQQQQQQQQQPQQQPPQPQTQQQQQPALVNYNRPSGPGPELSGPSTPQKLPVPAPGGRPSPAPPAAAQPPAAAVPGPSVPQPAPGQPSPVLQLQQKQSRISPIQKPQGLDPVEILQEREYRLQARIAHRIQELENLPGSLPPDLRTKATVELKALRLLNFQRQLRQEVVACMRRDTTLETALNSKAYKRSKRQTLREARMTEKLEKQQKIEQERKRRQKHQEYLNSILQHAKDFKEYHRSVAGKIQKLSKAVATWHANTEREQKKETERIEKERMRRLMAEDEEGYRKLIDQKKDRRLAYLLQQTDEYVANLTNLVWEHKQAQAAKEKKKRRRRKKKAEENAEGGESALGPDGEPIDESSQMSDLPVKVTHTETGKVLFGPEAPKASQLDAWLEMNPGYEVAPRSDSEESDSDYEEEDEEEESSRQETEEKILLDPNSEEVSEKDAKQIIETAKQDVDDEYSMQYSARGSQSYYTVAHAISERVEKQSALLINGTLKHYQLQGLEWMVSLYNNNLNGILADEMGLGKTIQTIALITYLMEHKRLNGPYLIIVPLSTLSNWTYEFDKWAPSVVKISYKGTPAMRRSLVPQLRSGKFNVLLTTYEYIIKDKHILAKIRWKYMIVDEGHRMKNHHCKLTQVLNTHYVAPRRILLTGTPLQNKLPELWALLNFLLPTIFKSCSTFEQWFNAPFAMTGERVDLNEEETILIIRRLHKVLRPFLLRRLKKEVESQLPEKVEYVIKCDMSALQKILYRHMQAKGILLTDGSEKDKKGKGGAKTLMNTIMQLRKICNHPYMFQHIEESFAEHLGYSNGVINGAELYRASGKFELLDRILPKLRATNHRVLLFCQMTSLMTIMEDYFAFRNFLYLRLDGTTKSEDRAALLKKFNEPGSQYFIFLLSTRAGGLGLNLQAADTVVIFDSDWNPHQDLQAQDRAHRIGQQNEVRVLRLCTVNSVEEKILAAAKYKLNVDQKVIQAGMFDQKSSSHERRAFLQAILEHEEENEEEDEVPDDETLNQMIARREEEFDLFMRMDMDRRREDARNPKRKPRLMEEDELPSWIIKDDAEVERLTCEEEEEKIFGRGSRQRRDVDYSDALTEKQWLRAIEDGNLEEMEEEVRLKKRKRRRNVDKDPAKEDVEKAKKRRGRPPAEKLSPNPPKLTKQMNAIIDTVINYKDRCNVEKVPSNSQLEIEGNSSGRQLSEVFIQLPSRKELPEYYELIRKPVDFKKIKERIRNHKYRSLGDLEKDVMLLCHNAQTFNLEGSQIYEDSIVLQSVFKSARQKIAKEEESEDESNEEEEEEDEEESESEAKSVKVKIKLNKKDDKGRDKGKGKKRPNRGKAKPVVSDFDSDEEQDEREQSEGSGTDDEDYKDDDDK
Chain of FL-SMARCA4 (P51532 whole entry): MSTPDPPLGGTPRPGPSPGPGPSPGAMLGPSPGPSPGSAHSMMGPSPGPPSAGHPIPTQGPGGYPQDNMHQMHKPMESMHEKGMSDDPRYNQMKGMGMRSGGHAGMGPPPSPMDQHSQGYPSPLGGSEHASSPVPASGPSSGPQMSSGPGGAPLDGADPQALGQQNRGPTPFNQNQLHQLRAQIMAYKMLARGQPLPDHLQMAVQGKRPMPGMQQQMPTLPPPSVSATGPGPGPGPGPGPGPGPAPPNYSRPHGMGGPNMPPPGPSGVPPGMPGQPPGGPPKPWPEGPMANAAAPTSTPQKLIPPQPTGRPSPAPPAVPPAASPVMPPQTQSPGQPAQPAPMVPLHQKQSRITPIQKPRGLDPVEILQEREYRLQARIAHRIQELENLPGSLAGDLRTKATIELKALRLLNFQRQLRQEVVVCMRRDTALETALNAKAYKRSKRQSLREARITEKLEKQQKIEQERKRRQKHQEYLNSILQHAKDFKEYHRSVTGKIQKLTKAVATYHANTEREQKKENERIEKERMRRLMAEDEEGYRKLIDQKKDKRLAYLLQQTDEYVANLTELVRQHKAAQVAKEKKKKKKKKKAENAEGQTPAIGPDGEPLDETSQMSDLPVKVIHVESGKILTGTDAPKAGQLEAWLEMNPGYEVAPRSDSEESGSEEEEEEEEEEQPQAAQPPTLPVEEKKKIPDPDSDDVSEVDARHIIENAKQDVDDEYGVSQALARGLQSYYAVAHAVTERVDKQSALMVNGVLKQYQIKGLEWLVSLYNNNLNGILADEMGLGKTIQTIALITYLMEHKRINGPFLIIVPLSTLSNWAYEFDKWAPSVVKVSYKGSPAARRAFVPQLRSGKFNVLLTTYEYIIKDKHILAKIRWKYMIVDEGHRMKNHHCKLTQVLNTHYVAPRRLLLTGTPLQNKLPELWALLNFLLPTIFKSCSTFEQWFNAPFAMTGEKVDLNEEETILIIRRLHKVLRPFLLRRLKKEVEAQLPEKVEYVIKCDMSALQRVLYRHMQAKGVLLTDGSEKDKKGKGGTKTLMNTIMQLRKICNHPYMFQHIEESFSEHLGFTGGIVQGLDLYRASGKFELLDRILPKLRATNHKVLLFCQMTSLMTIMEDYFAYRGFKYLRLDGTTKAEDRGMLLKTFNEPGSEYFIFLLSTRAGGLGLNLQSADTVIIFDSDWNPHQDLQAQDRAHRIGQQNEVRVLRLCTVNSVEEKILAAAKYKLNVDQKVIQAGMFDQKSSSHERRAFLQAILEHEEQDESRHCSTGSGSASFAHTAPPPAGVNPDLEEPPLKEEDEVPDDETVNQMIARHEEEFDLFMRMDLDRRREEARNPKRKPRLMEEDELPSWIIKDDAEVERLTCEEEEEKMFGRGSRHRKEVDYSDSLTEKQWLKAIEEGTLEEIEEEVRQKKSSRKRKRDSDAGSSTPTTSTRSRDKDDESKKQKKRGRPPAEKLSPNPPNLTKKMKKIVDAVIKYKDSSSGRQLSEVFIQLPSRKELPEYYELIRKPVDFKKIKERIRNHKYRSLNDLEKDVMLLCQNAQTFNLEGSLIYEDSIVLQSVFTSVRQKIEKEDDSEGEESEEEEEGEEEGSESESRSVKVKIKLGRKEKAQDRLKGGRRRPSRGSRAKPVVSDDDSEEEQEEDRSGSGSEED

Compound | IC50 (H358 cells) [µM] | IC50 ([1]; Table 3c.1) [µM] | IC50 (A549 cells) [µM] | IC50 (FL-SMARCA4; [2]) [µM] | IC50 [1, 3] [µM] | IC50 (FL-SMARCA4; FL-SMARCA4 IC50) [µM]
O=C(Nc1cc(F)c(=O)n(CC(F)F)c1)c1cc(C#Cc2ccccn2)c(Cl)s1 [Compound 81c] | > 10 | 0.0798 | 2.01 | 0.198 | – | –
Cc1sc(C(=O)Nc2cc(F)c(=O)n(CC(F)F)c2)cc1C#N [Compound 81d] | > 10 | – | 2.37 | – | 0.067 | 0.241
Cc1cc(NC(=O)c2cc(Cl)c(C(F)(F)F)s2)cn(CC(F)F)c1=O [Compound 82d] | > 10 | – | 4.73 | – | 1.36 | 8.09
O=C(Nc1cc(F)c(=O)n(CC(F)F)c1)c1cc(C#Cc2cn[nH]c2)c(Cl)s1 [Compound 83c] | > 10 | 0.0194 | 3.47 | 0.0629 | – | –
CC(F)(F)c1sc(C(=O)Nc2cc(F)c(=O)n(CC(F)F)c2)cc1C#N [Compound 83d] | > 10 | – | > 10 | – | 0.465 | 2.39
CC(C)(F)c1sc(C(=O)Nc2cc(F)c(=O)n(CC(F)F)c2)cc1C#N [Compound 84d] | > 10 | – | > 10 | – | 8.58 | > 50
CC#Cc1cc(C(=O)Nc2cc(F)c(=O)n(CC(F)F)c2)sc1Cl [Compound 85c] | > 10 | 0.0811 | 2.37 | 0.233 | – | –
N#Cc1cc(C(=O)Nc2cc(F)c(=O)n(CC3(F)CC3)c2)sc1C(F)(F)F [Compound 85d] | > 10 | – | 4.17 | – | 0.104 | 0.596
CNC(=O)c1cccc(C#Cc2cc(C(=O)Nc3cc(F)c(=O)n(CC(F)F)c3)sc2Cl)c1 [Compound 86c] | > 10 | 0.0172 | 1.73 | 0.0451 | – | –
N#Cc1cc(NC(=O)c2cc(Cl)c(C(F)(F)F)s2)cn(CC(F)F)c1=O [Compound 86d] | 8.56 | – | 3.95 | – | 0.101 | 0.512
N#Cc1cc(C(=O)Nc2cc(F)c(=O)n(CC(F)F)c2)sc1C1CC1 [Compound 87d] | > 10 | – | > 10 | – | 0.978 | 4.99
N#Cc1cc(C(=O)Nc2cc(O)c(=O)n(CC(F)F)c2)sc1C(F)(F)F [Compound 88d] | > 10 | – | > 10 | – | 0.576 | 3.97
O=C(Nc1cc(F)c(=O)n(CC(F)F)c1)c1cc(OC(F)(F)F)c(C(F)(F)F)s1 [Compound 89d] | > 10 | – | 5.62 | – | 0.187 | 2.07
O=C(Nc1cc(F)c(=O)n(CC(F)F)c1)c1cc(C#Cc2cn3c(n2)COCC3)c(Cl)s1 [Compound 90d] | > 10 | – | > 10 | – | 1.39 | 2.71
O=C(Nc1cc(F)c(=O)n(CC(F)F)c1)c1cc(C#Cc2ccc3nncn3c2)c(Cl)s1 [Compound 91d] | > 10 | – | > 10 | – | 0.0229 | 0.0698
Cc1sc(C(=O)Nc2cc(F)c(=O)n(CC(F)F)c2)cc1C#CC1COC1 [Compound 92c] | > 10 | 0.12 | 2.33 | 0.346 | – | –
Cc1cc(C#Cc2cc(C(=O)Nc3cc(C#N)c(=O)n(CC(F)F)c3)sc2Cl)sn1 [Compound 92d] | > 10 | – | 1.99 | – | 0.0313 | 0.155
Cn1cc(C#Cc2cc(C(=O)Nc3cc(C#N)c(=O)n(CC(F)F)c3)sc2Cl)cn1 [Compound 93d] | > 10 | – | 3.93 | – | 0.0431 | 0.147
O=C(Nc1cc(F)c(=O)n(CC(F)F)c1)c1cc(/C=C/c2cccnc2)c(Cl)s1 [Compound 95c] | > 10 | 0.603 | > 10 | 5.71 | – | –

Compound | IC50 (H358 cells) [µM] | IC50 ([1]; Table 3c.1) [µM] | IC50 (A549 cells) [µM] | IC50 (FL-SMARCA4; [2]) [µM] | IC50 [1, 3] [µM] | IC50 (FL-SMARCA4; FL-SMARCA4 IC50) [µM]
O=C(Nc1cc(F)c(=O)n(CC(F)F)c1)c1cc(C#Cc2cnc3n2CCOC3)c(Cl)s1 [Compound 95d] | > 10 | – | > 10 | – | 0.334 | 1.06
O=C(Nc1cc(F)c(=O)n(CC(F)F)c1)c1cc(C#Cc2ccc3cncn3c2)c(Cl)s1 [Compound 96d] | > 10 | – | 4.44 | – | 0.0381 | 0.0973
O=C(Nc1cc(F)c(=O)n(CC(F)F)c1)c1cc(C#Cc2ccn(-c3ccccn3)c(=O)c2)c(Cl)s1 [Compound 97d] | > 10 | – | > 10 | – | 2.69 | 3.38
CS(=O)(=O)c1cccc(C#Cc2cc(C(=O)Nc3cc(F)c(=O)n(CC(F)F)c3)sc2Cl)c1 [Compound 98c] | > 10 | 0.108 | 3.29 | 0.287 | – | –
CNS(=O)(=O)c1cccc(C#Cc2cc(C(=O)Nc3cc(F)c(=O)n(CC(F)F)c3)sc2Cl)c1 [Compound 99c] | > 10 | 0.0406 | 1.7 | 0.0801 | – | –
O=C(Nc1cc(F)c(=O)n(CC(F)F)c1)c1cc(C#CC2CCS(=O)(=O)CC2)c(Cl)s1 [Compound 99d] | > 10 | – | 6.68 | – | 0.195 | 0.244
N#Cc1ncc(C#Cc2cc(C(=O)Nc3cc(F)c(=O)n(CC(F)F)c3)sc2Cl)o1 [Compound 100d] | 6.25 | – | 4.35 | – | 0.00606 | 0.00853
O=C(Nc1cc(F)c(=O)n(CC(F)F)c1)c1cc(C#CC2OCCCO2)c(Cl)s1 [Compound 101d] | > 10 | – | 3.74 | – | 0.166 | 0.285
N#Cc1sc(C(=O)Nc2cc(F)c(=O)n(CC(F)F)c2)cc1C#CC1CCOCC1 [Compound 102d] | > 10 | – | 1.05 | – | 0.0194 | 0.0464
N#Cc1cc(C(=O)Nc2cc(OC(F)(F)F)c(=O)n(CC(F)F)c2)sc1C(F)(F)F [Compound 103d] | > 10 | – | > 10 | – | > 50 | > 50
N#Cc1sc(C(=O)Nc2cc(F)c(=O)n(CC(F)F)c2)cc1C#C[C@H]1C[C@H](O)C1 [Compound 104d] | > 10 | – | 4.37 | – | 0.03 | 0.082
N#Cc1sc(C(=O)Nc2cc(F)c(=O)n(CC(F)F)c2)cc1C#C[C@H]1C[C@@H](O)C1 [Compound 105d] | > 10 | – | 4.29 | – | 0.0314 | 0.0906
O=C(Nc1cc(F)c(=O)n(CC(F)F)c1)c1cc(C#CC2CCNC2)c(Cl)s1 (stereo not shown) [Compound 106d] | > 10 | – | > 10 | – | 2.19 | 5.63
O=C(Nc1cc(F)c(=O)n(CC(F)F)c1)c1cc(C#CC2CCCN2)c(Cl)s1 (stereo not shown) [Compound 107d] | > 10 | – | > 10 | – | 0.572 | 1.54
O=C(Nc1cc(F)c(=O)n(CC(F)F)c1)c1cc(C#CC2CCCNC2)c(Cl)s1 (stereo not shown) [Compound 108d] | > 10 | – | > 10 | – | 0.542 | 1.78
O=C(Nc1cc(F)c(=O)n(CC(F)F)c1)c1cc(C#CC2CNCCO2)c(Cl)s1 (stereo not shown) [Compound 109d] | > 10 | – | > 10 | – | 1.06 | 3.16
O=C(Nc1cc(F)c(=O)n(CC(F)F)c1)c1cc(C#CC2CCN(CC(F)(F)F)C2)c(Cl)s1 (stereo not shown) [Compound 110d] | > 10 | – | > 10 | – | 1.47 | 4.61
NC(=O)c1nc(C#Cc2cc(C(=O)Nc3cc(F)c(=O)n(CC(F)F)c3)sc2Cl)cs1 [Compound 111c] | > 10 | 0.0105 | 1.95 | 0.0265 | – | –
